Test: Distribution of the drug in human skin (Franz' cells)
Assay type: in vitro ADME
Details: 16 hours after application on a human skin (Franz' cells)

With `CCC(=O)O[C@]1(C(=O)CCl)[C@@H](C)C[C@H]2[C@@H]3CCC4=CC(=O)C=C[C@]4(C)[C@@]3(F)[C@@H](O)C[C@@]21C` [Clobetasol-17-propionate] the “Skin distribution of the drug” value was “accumulate in the Stratum corneum”.

Reference: patent publication US20100216753A1, “CONTROLLED RELEASE OF DRUGS INTO/THROUGH THE SKIN” (Galderma S.A., priority 2005, published 2010)
